Assay results from paper PMC2033796, “Mechanisms of acquired resistance to the quinazoline thymidylate synthase inhibitor ZD1694 (Tomudex) in one mouse and three human cell lines” (British Journal of Cancer, 1995).

Target: T1, TS isolated from human ovarian CH1 cells (CH1 TS) (Homo sapiens, UniProt P04818)
T1 construct: gene TYMS; native enzyme partially purified from CH1 ovarian tumour cells (parental line), no tag
Experiment: 3H release from [[…]-3H]dUMP, non-linear regression
Type: biochemical

T1 sequence (P04818 2-313): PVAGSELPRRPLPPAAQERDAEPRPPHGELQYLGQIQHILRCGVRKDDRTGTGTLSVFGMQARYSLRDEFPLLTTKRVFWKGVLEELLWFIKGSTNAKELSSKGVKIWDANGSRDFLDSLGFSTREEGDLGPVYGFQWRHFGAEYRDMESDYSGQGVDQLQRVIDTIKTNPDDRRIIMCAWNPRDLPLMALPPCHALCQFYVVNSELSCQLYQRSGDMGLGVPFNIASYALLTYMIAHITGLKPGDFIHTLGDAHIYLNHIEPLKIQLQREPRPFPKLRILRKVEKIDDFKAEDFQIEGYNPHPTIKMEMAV

Structure (SMILES): Cc1nc2ccc(CN(C)c3ccc(C(=O)N[C@@H](CCC(=O)N[C@@H](CCC(=O)N[C@@H](CCC(=O)O)C(=O)O)C(=O)O)C(=O)O)s3)cc2c(=O)[nH]1 [ZD1694 triglutamate]
- Ki: 1.6 ± 0.1 nM
